Measured values published in PMC5011342, “A high throughput drug screening assay to identify compounds that promote oligodendrocyte differentiation using acutely dissociated and purified oligodendrocyte precursor cells” (BMC Research Notes, 2016).
Where two headings read alike, the source gives them in different places.

Key:
[1] = system: acutely dissociated and purified rat OPCs; assay: Acute OL differentiation assay (MBP expression/cell, immunofluorescent image quantification); format: cell-based; conditions: for activation at 2 µM / activation at 10 µM / activation at 0.4 µM: Rattus norvegicus
In short: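 This acute differentiation assay used purified rat OPCs from postnatal day 6–7 pups, seeded into PDL/laminin-coated 96-well plates in differentiation medium lacking PDGF and FGF. Compounds were applied in quadruplicate after a 1–2 h preincubation at 37 °C, 10 % CO2, with 0.1 % DMSO negative and 40 ng/ml T3 positive controls in eight wells. After fixation on DIV4, anti-MBP immunofluorescence images yielded MBP expression/cell.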

expanded OPCs = assay: cells; conditions: for viability at 0.1 µM / viability at 1 µM / viability at 10 µM: Rattus norvegicus, 72 h; for 0.1 µM (% DMSO) / 1 µM (% DMSO) / 10 µM (% DMSO): alamarBlue viability of expanded OPCs; for 0.1 µM (% DMSO): compound at 0.1 µM; for 1 µM (% DMSO): compound at 1 µM; for 10 µM (% DMSO): compound at 10 µM
In short: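 Toxicity screen: compounds added at 0.1, 1 and 10 µM to PDGF-AA-expanded OPCs in 96-well plates, 3-day incubation at 37 °C, 10% CO2, then alamarBlue 1:10 for 4 h with fluorescence readout. Results set screening doses of 10/2, 2/0.4 or 0.4/0.08 µM.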

[2] = 2 uM test compound, relative to quetiapine, sheet "All OLga data", read-out: OL differentiation, 2 uM (% Quet)
[3] = 10 uM test compound, relative to quetiapine, sheet "All OLga data", read-out: OL differentiation, 10 uM (% Quet)
[4] = read-out: 0.1 µM (% DMSO), alamarBlue viability of expanded OPCs, compound at 0.1 µM, sheet All Tox data
[5] = read-out: 1 µM (% DMSO), alamarBlue viability of expanded OPCs, compound at 1 µM, sheet All Tox data
[6] = read-out: 10 µM (% DMSO), alamarBlue viability of expanded OPCs, compound at 10 µM, sheet All Tox data
[7] = test compound at 2 uM, MBP expression relative to quetiapine, NCC library screen, sheet "All OLga data", read-out: 2 uM (% Quet)
[8] = test compound at 10 uM, MBP expression relative to quetiapine, NCC library screen, sheet "All OLga data", read-out: 10 uM (% Quet)
[9] = 0.4 uM test compound, relative to quetiapine, sheet "All OLga data", read-out: OL differentiation, 0.4 uM (% Quet)
[10] = read-out: 0.1 µM (% DMSO), alamarBlue viability, NCC library compound at 0.1 µM, sheet "All Tox data"
[11] = read-out: 1 µM (% DMSO), alamarBlue viability, NCC library compound at 1 µM, sheet "All Tox data"
[12] = read-out: 10 µM (% DMSO), alamarBlue viability, NCC library compound at 10 µM, sheet "All Tox data"
[13] = test compound at 2 uM, NCC library screen, sheet "All OLga data", relative to quetiapine, read-out: 2 uM (% Quet)
[14] = test compound at 10 uM, NCC library screen, sheet "All OLga data", relative to quetiapine, read-out: 10 uM (% Quet)

**Q.** Which results are given for NC(=O)C[S+]([O-])C(c1ccccc1)c1ccccc1 (stereo not shown) [Modafinil]?
**A.** activation at 2 µM [1, 2]: 15.5%; activation at 10 µM [1, 3]: -30.2%; viability at 0.1 µM (expanded OPCs; [4]): 105%; viability at 1 µM (expanded OPCs; [5]): 94.6%; viability at 10 µM (expanded OPCs; [6]): 99.6%

**Q.** Which results are given for CCc1c(C)[nH]c2c1C(=O)C(CN1CCOCC1)CC2 (stereo not shown) [Molindone]?
**A.** activation at 2 µM [1, 7]: 1.6%; activation at 10 µM [1, 8]: -34.4%; 0.1 µM (% DMSO) (expanded OPCs; relative to DMSO control): 90.6 % DMSO; 1 µM (% DMSO) (expanded OPCs; relative to DMSO control): 95.4 % DMSO; 10 µM (% DMSO) (expanded OPCs; relative to DMSO control): 105.0 % DMSO

**Q.** Which activation at 0.4 µM [1, 9] does the source give for CC(C)(O)c1ccccc1CC[C@@H](SCC1(CC(=O)O)CC1)c1cccc(/C=C/c2ccc3ccc(Cl)cc3n2)c1 [Montelukast] here?
**A.** Its activation at 0.4 µM is 12.9%.

**Q.** And the activation at 2 µM [1, 2]?
**A.** Its activation at 2 µM is -31.7%.

**Q.** And the viability at 0.1 µM (expanded OPCs; [10])?
**A.** Its viability at 0.1 µM is 95.5%.

**Q.** What about the viability at 1 µM (expanded OPCs; [11]) of the same compound?
**A.** The viability at 1 µM was 83%.

**Q.** What about the viability at 10 µM (expanded OPCs; [12]) of the same compound?
**A.** Its viability at 10 µM is 11%.

**Q.** With CCOc1cc(N)c(Cl)cc1C(=O)NCC1CN(Cc2ccc(F)cc2)CCO1 (stereo not shown) [Mosapride] as the compound, how does the activation at 2 µM [1, 2] read?
**A.** The activation at 2 µM was -17%.

**Q.** And the activation at 10 µM [1, 3]?
**A.** The activation at 10 µM was 4.4%.

**Q.** And the viability at 0.1 µM (expanded OPCs; [4])?
**A.** Its viability at 0.1 µM is 102%.

**Q.** And the viability at 1 µM (expanded OPCs; [5])?
**A.** Its viability at 1 µM is 104%.

**Q.** And the viability at 10 µM (expanded OPCs; [6])?
**A.** Its viability at 10 µM is 130%.

**Q.** How did the activation at 2 µM [1, 2] turn out when COc1nc(C)nc(Cl)c1N=C1NCCN1 [Moxonidine] was run?
**A.** The activation at 2 µM was -1.2%.

**Q.** What about the activation at 10 µM [1, 3] of the same compound?
**A.** The activation at 10 µM was -26.2%.

**Q.** What about the viability at 0.1 µM (expanded OPCs; [4]) of the same compound?
**A.** The viability at 0.1 µM was 85.4%.

**Q.** What about the viability at 1 µM (expanded OPCs; [5]) of the same compound?
**A.** The viability at 1 µM was 88.5%.

**Q.** What about the viability at 10 µM (expanded OPCs; [6]) of the same compound?
**A.** Its viability at 10 µM is 98.4%.

**Q.** With C/C(=C\C(=O)OCCCCCCCCC(=O)O)C[C@@H]1OC[C@H](C[C@@H]2O[C@H]2[C@@H](C)[C@H](C)O)[C@@H](O)[C@H]1O [Mupirocin] as the compound, how does the activation at 2 µM [1, 7] read?
**A.** Its activation at 2 µM is -2.9%.

**Q.** What about the activation at 10 µM [1, 8] of the same compound?
**A.** The activation at 10 µM was 0.04%.

**Q.** What about the “0.1 µM (% DMSO)” value (expanded OPCs; relative to DMSO control) of the same compound?
**A.** The value was 103.2 % DMSO.

**Q.** What about the “1 µM (% DMSO)” value (expanded OPCs; relative to DMSO control) of the same compound?
**A.** Its value is 108.1 % DMSO.

**Q.** What about the “10 µM (% DMSO)” value (expanded OPCs; relative to DMSO control) of the same compound?
**A.** The value was 104.3 % DMSO.

**Q.** With CN1CC[C@@H](c2ccc(F)cc2)[C@H](COc2ccc3c(c2)OCO3)C1 [N-Methylparoxetine] as the compound, how does the “OL differentiation, 0.4 uM (% Quet)” value ([1]; 0.4 uM test compound, relative to quetiapine, sheet "All OLga data") read?
**A.** Its value is -15.7 % Quet.

**Q.** What about the “OL differentiation, 2 uM (% Quet)” value ([1]; 2 uM test compound, relative to quetiapine, sheet "All OLga data") of the same compound?
**A.** Its value is -45.1 % Quet.

**Q.** What about the “0.1 µM (% DMSO)” value (expanded OPCs; sheet All Tox data) of the same compound?
**A.** Its value is 86.7 % DMSO.

**Q.** And the “1 µM (% DMSO)” value (expanded OPCs; sheet All Tox data)?
**A.** Its value is 60.7 % DMSO.

**Q.** What about the “10 µM (% DMSO)” value (expanded OPCs; sheet All Tox data) of the same compound?
**A.** Its value is 18.7 % DMSO.

**Q.** For COc1ccc2cc(CCC(C)=O)ccc2c1 [Nabumetone], which activation at 2 µM [1, 13] is on record?
**A.** The activation at 2 µM was 5.8%.

**Q.** And the activation at 10 µM [1, 14]?
**A.** Its activation at 10 µM is 14.1%.

**Q.** What about the viability at 0.1 µM (expanded OPCs; [10]) of the same compound?
**A.** The viability at 0.1 µM was 92%.

**Q.** And the viability at 1 µM (expanded OPCs; [11])?
**A.** The viability at 1 µM was 90.9%.

**Q.** What about the viability at 10 µM (expanded OPCs; [12]) of the same compound?
**A.** The viability at 10 µM was 94.8%.

**Q.** With CC(C)(C)NCC(O)COc1cccc2c1CC(O)C(O)C2 (stereo not shown) [Nadolol] as the compound, how does the activation at 2 µM [1, 13] read?
**A.** Its activation at 2 µM is -14.4%.

**Q.** What about the activation at 10 µM [1, 14] of the same compound?
**A.** The activation at 10 µM was -35%.

**Q.** What about the “0.1 µM (% DMSO)” value (expanded OPCs; relative to DMSO control) of the same compound?
**A.** The value was 102.3 % DMSO.

**Q.** What about the “1 µM (% DMSO)” value (expanded OPCs; relative to DMSO control) of the same compound?
**A.** The value was 95.3 % DMSO.

**Q.** And the “10 µM (% DMSO)” value (expanded OPCs; relative to DMSO control)?
**A.** The value was 94.0 % DMSO.

**Q.** CCCCN1CCCC1CNC(=O)c1cc(C#N)c2ccccc2c1OC (stereo not shown) [Nafadotride] was tested. Which activation at 0.4 µM ([1]; test compound at 0.4 uM, NCC library screen, sheet "All OLga data", relative to quetiapine, read-out: 0.4 uM (% Quet)) did it give?
**A.** The activation at 0.4 µM was 7.6%.

**Q.** What about the activation at 2 µM [1, 13] of the same compound?
**A.** Its activation at 2 µM is 26.6%.

**Q.** And the viability at 0.1 µM (expanded OPCs; [10])?
**A.** Its viability at 0.1 µM is 118%.

**Q.** What about the viability at 1 µM (expanded OPCs; [11]) of the same compound?
**A.** Its viability at 1 µM is 131%.

**Q.** What about the viability at 10 µM (expanded OPCs; [12]) of the same compound?
**A.** Its viability at 10 µM is 49.6%.

**Q.** What does the source list for CCOc1ccc2ccccc2c1C(=O)N[C@@H]1C(=O)N2[C@@H]1SC(C)(C)[C@@H]2C(=O)O [Nafcillin]?
**A.** activation at 2 µM [1, 13]: -20.5%; activation at 10 µM [1, 14]: 0.11%; 0.1 µM (% DMSO) (expanded OPCs; relative to DMSO control): 104.4 % DMSO; 1 µM (% DMSO) (expanded OPCs; relative to DMSO control): 94.8 % DMSO; 10 µM (% DMSO) (expanded OPCs; relative to DMSO control): 90.0 % DMSO

**Q.** Which results are given for COc1ccccc1N1CCN(CC(O)COc2cccc3ccccc23)CC1 (stereo not shown) [Naftopidil]?
**A.** activation at 0.4 µM [1, 9]: -7.9%; activation at 2 µM [1, 2]: -49.3%; viability at 0.1 µM (expanded OPCs; [4]): 96.2%; viability at 1 µM (expanded OPCs; [5]): 87.5%; viability at 10 µM (expanded OPCs; [6]): 26.4%

**Q.** Oc1ccc2c3c1O[C@H]1[C@@H](O)CC[C@@]4(O)[C@@H](C2)N(CC2CCC2)CC[C@]314 [Nalbufina] was tested. Which activation at 2 µM ([1]; read-out: OL differentiation, 2 uM (% Quet)) did it give?
**A.** The activation at 2 µM was -0.9%.

**Q.** What about the activation at 10 µM ([1]; read-out: OL differentiation, 10 uM (% Quet)) of the same compound?
**A.** The activation at 10 µM was 19.7%.

**Q.** And the viability at 0.1 µM (expanded OPCs; read-out: 0.1 µM (% DMSO))?
**A.** Its viability at 0.1 µM is 99%.

**Q.** What about the viability at 1 µM (expanded OPCs; read-out: 1 µM (% DMSO)) of the same compound?
**A.** The viability at 1 µM was 98.8%.

**Q.** What about the viability at 10 µM (expanded OPCs; read-out: 10 µM (% DMSO)) of the same compound?
**A.** The viability at 10 µM was 99.1%.

**Q.** Which activation at 2 µM [1, 7] does the source give for CCn1cc(C(=O)O)c(=O)c2ccc(C)nc21 [Nalidixic Acid] here?
**A.** The activation at 2 µM was -14.9%.

**Q.** What about the activation at 10 µM [1, 8] of the same compound?
**A.** The activation at 10 µM was -17.1%.

**Q.** What about the “0.1 µM (% DMSO)” value (expanded OPCs; relative to DMSO control) of the same compound?
**A.** The value was 93.0 % DMSO.

**Q.** And the “1 µM (% DMSO)” value (expanded OPCs; relative to DMSO control)?
**A.** Its value is 93.1 % DMSO.

**Q.** What about the “10 µM (% DMSO)” value (expanded OPCs; relative to DMSO control) of the same compound?
**A.** The value was 92.5 % DMSO.
